Laboratory results reported in PubChem BioAssay (NCI).
Several values for one entry are separate records, joined by “and”; a condition that tells them apart may be missing. Equal entries are not always repeated.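 Dose response: 5 concentrations. Exposure: 48 h. Format: 96-well plates. Endpoint: linear interpolation; highest concentration if not reached. At the GI50, growth is halved. TGI: concentration producing complete growth inhibition.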

What was measured:
Test in all cases: NCI anticancer screen, dose series, 48 h
[1] = test system: OVCAR-5 ovarian
[2] = test system: MCF7 breast
[3] = test system: KM12 colon
[4] = test system: SF-268 CNS
[5] = test system: TK-10 renal
[6] = test system: HT29 colon
[7] = test system: OVCAR-8 ovarian
[8] = test system: ACHN renal
[9] = test system: HCT-116 colon
[10] = test system: DU-145 prostate
[11] = test system: NCI-H23 lung
[12] = test system: OVCAR-3 ovarian
[13] = test system: SW-620 colon
[14] = test system: SK-MEL-5 melanoma
[15] = test system: HOP-62 NSCLC
[16] = test system: 786-0 renal
[17] = test system: NCI-H460 lung
[18] = test system: MDA-MB-231 breast
[19] = test system: MOLT-4 leukemia

| Structure (SMILES) | TGI [1] | TGI [2] | TGI [3] | TGI [4] | TGI [5] | TGI [6] | TGI [7] | TGI [8] | TGI [9] | TGI [10] | TGI [11] | TGI [12] | TGI [13] | TGI [14] | TGI [15] | TGI [16] | TGI [17] | TGI [18] | TGI [19] | GI50 [2] |
| --- | --- | --- | --- | --- | --- | --- | --- | --- | --- | --- | --- | --- | --- | --- | --- | --- | --- | --- | --- | --- |
| OC(c1cc(-c2ccc(Cl)cc2)nc2ccccc12)C1CCCCN1 (centres undefined) | 4.94 µM | 3.03 µM | 5.42 µM | 4.51 µM | 9.85 µM | 3.82 µM | 5.28 µM | 4.1 µM | 3.74 µM | 3.45 µM | 4.58 µM | 3.98 µM | 3.69 µM | 5.9 µM | 3.13 µM | 3.92 µM | 4.76 µM | 3.58 µM | 4.52 µM |  |
| N=[N+]=CC(=O)CCC(NC(=O)C(CCC(=O)C=[N+]=N)NC(=O)CCC(N)C(=O)O)C(=O)O (centres undefined) | > 100 µM | > 100 µM | > 31.6 µM | > 100 µM |  | > 100 µM | > 100 µM |  | > 100 µM |  | > 100 µM | > 100 µM | > 100 µM | > 100 µM | > 100 µM |  | > 100 µM |  | > 100 µM |  |
| Nc1c(C(=O)Nc2ccc(C3=NCCN3)cc2)cccc1C(=O)Nc1ccc(C2=NCCN2)cc1 | > 100 µM | > 100 µM | > 100 µM | > 100 µM |  | > 100 µM | > 100 µM |  | > 100 µM |  | > 100 µM | > 100 µM | > 100 µM | > 100 µM |  |  | > 100 µM |  | > 100 µM |  |
| C[n+]1ccc(Nc2ccc(NC(=O)c3ccc(Nc4cc[n+](C)c5ccc([N+](=O)[O-])cc45)cc3[N+](=O)[O-])cc2)cc1 | > 100 µM | > 58.3 µM | > 100 µM | > 100 µM | > 100 µM | > 100 µM | > 100 µM | > 100 µM | > 100 µM |  | > 100 µM | 54.6 µM and 54.3 µM | > 100 µM | 70.4 µM and > 70.4 µM | 84.9 µM and > 100 µM | 77.4 µM | > 100 µM |  | > 100 µM | 1.25 µM and 3.34 µM |
| CC(C)(C)C(=O)CP(=O)(O)O | > 100 µM | > 100 µM | > 100 µM | > 100 µM | > 100 µM | > 100 µM | > 100 µM | > 100 µM | > 100 µM | > 100 µM | > 100 µM | > 100 µM | > 100 µM | > 100 µM | > 100 µM | > 100 µM | > 100 µM | > 100 µM | > 100 µM |  |
| Cc1c(Cl)c(S(N)(=O)=O)cc2c1NC=NS2(=O)=O | > 100 µM | > 100 µM | > 100 µM | > 100 µM | > 100 µM | > 100 µM | > 100 µM | > 100 µM | > 100 µM | > 100 µM | > 100 µM | > 100 µM | > 100 µM | > 100 µM | > 100 µM | > 100 µM | > 100 µM | > 100 µM | > 100 µM |  |
| Oc1ccc(Cc2nccc3cc(O)c(O)cc23)cc1O | > 100 µM | 49.6 µM | > 100 µM | > 100 µM | > 100 µM | > 100 µM | > 100 µM | > 100 µM | 35.1 µM | > 100 µM | > 100 µM | > 100 µM | > 100 µM | > 100 µM | > 100 µM | > 100 µM | > 100 µM | > 100 µM | > 100 µM |  |
| O=C(O)NCC1CCCCC1 (tested in a mixture with another compound) | > 100 µM |  | 29.7 µM | 38.4 µM | > 100 µM | 66.6 µM | 31.7 µM | 48.1 µM | 88.7 µM | 50.7 µM | 81.2 µM | 19.8 µM | 52.4 µM | 28.7 µM | 33.8 µM | 77.3 µM | 26.1 µM | 44.9 µM | > 100 µM |  |
| C1CSC(=[N+]2CC[N+](=C3SCCS3)CC2)S1 | > 100 µM |  | > 100 µM | > 100 µM | > 100 µM | > 100 µM | > 100 µM | > 100 µM | > 100 µM |  | > 100 µM | > 100 µM | > 100 µM | > 100 µM | > 100 µM | > 100 µM | > 100 µM |  | > 100 µM |  |
| C/C(=N\NC(=S)N1CCN(C)CC1)c1nc2ncccc2[nH]1 | > 100 µM | 80.5 µM | > 100 µM | > 100 µM | > 100 µM | > 100 µM | > 100 µM | > 100 µM |  |  | > 100 µM | > 100 µM | > 100 µM | > 100 µM | > 100 µM | > 100 µM | > 100 µM | > 100 µM | > 100 µM |  |
| C[n+]1c2ccccc2c(NC(CS)C(=O)O)c2ccccc21 (centres undefined) | > 100 µM |  | 64.9 µM | 70.2 µM | > 100 µM | > 100 µM | 61.2 µM | > 100 µM | 30.7 µM |  | > 100 µM | 71.9 µM | > 100 µM | 44.6 µM | 73.5 µM | > 100 µM | > 100 µM |  | 38.6 µM |  |
| Cc1ccc(N=Nc2ccc(N)cc2C)c(S(N)(=O)=O)c1 | > 100 µM | > 100 µM | > 100 µM | > 100 µM | > 100 µM | > 100 µM | > 100 µM | > 100 µM | > 100 µM | > 100 µM | > 100 µM | > 100 µM | > 100 µM | > 100 µM | > 100 µM | > 100 µM | > 100 µM | > 100 µM | > 100 µM |  |
| C[N+]1(Cc2ccc(Cl)c(Cl)c2)CCCC1C1CCCN(Cc2ccc(Cl)c(Cl)c2)C1 (centres undefined) | > 100 µM | > 100 µM | > 100 µM | > 100 µM | > 100 µM | > 100 µM | > 100 µM | > 100 µM | > 100 µM | > 100 µM | > 100 µM | > 100 µM | > 100 µM | > 100 µM | > 100 µM | > 100 µM | > 100 µM | > 100 µM | > 100 µM |  |
| Nc1ccc(S(=O)(=O)Nc2ccc(Nc3c4ccccc4nc4ccccc34)cc2)cc1 | 12.9 µM | 16 µM | 4.59 µM | 13.8 µM | 9.55 µM | 5.4 µM | 10 µM | 0.149 µM | 15.6 µM | 0.0188 µM | 0.732 µM | 4.57 µM | 14.3 µM | 2 µM | 0.0805 µM | 0.352 µM | 2.11 µM | 22.1 µM |  |  |
| C/C=C(\C)C(=O)OC1C(C)=C2C(C1OC(=O)CCCC)C(C)(OC(C)=O)CC(OC(=O)CCCC)C1(O)C2OC(=O)C1(C)O (centres undefined) | > 93.3 µM | > 100 µM | > 42.5 µM | > 100 µM | > 100 µM | 9.72 µM | > 100 µM | > 100 µM | 2.09 µM | > 100 µM | > 47.4 µM | 2.62 µM |  |  | 3.67 µM | > 60.1 µM | > 100 µM | 5.87 µM | > 100 µM |  |
| O=C(NC1C=Nc2ccc([N+](=O)[O-])cc2NC1=O)c1cc(Cl)cc([N+](=O)[O-])c1 (centres undefined) | > 100 µM |  | > 100 µM | > 100 µM | > 100 µM | > 100 µM | > 100 µM | > 100 µM | > 100 µM |  | > 100 µM |  | > 100 µM | > 100 µM | > 100 µM |  | > 100 µM |  | > 100 µM |  |
| CC(C)(C)NCC(O)c1ccc(O)c(CO)n1 (centres undefined) | > 100 µM | > 100 µM | > 100 µM | > 100 µM | > 100 µM | > 100 µM | > 100 µM | > 100 µM | > 100 µM | > 100 µM | > 100 µM | > 100 µM | > 100 µM | > 100 µM | > 100 µM | > 100 µM | > 100 µM | > 100 µM | > 100 µM |  |
| CN(Cc1cccc2ccccc12)Cc1cccc2ccccc12 | > 100 µM | 45 µM | > 100 µM | > 100 µM | > 100 µM | > 100 µM | > 100 µM | > 100 µM | 55.8 µM | > 100 µM | > 100 µM | > 100 µM | 57.9 µM | 33.6 µM | > 100 µM | > 100 µM | > 100 µM | 64.1 µM | 35 µM |  |
| Cc1cc2sc(C)[n+](CCCOS(=O)(=O)[O-])c2cc1C | > 100 µM | > 100 µM | > 100 µM | > 100 µM | > 100 µM | > 100 µM | > 100 µM | > 100 µM | > 100 µM | > 100 µM | > 100 µM | > 100 µM | > 100 µM | > 100 µM | > 100 µM | > 100 µM | > 100 µM | > 100 µM | > 100 µM |  |
| COC(=O)c1cc2cc3c(c(O)c2c(=O)o1)O[C@@]1(Oc2c(O)c4c(c(O)c2[C@H]1OC1CC(OC)C(O)C(C)O1)C(=O)C=C(OC)C4=O)[C@H](O)C3 (some centres undefined) | > 24.3 µM | 10.1 µM | 9.51 µM | 5.19 µM | 17.5 µM | > 20.3 µM | 10.7 µM | 9.19 µM | > 20.8 µM | 7.87 µM | 3.85 µM | > 23.4 µM | > 39.8 µM |  | 5.37 µM |  | > 21.6 µM | 5.95 µM | 6.22 µM |  |
